Measured values as given in the supplement of paper PMC11208160.

Assay: recombinant barcode read abundance after kanamycin selection (control-corrected) (log10(CPM+1)); higher = more efficient recombination; sequences stand for … in AGTGCAGAGAAAATCGGCCAGTTTTCTCTGCCTGCAGTCCGCATGCCGT…AGATTTATGCAGCGGACTGCCTTTCTCCCAAAGTGATAAACCGGACAGTATCATGGACCGGTTTTCCCGGTAATCCGTATTTGCAAGGTTGGTTTCACT; site = the 11-nt target
How it was run: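 Duplicate cultures were plated either on chloramphenicol/ampicillin LB agar, serving as control, or on chloramphenicol/ampicillin/kanamycin with 0.1 mM IPTG. These came from a pooled E. coli library co-electroporated with a donor plasmid, each member pairing a target with an IS621 bridge RNA target-binding loop. Recombination efficiency equals averaged, control-corrected counts per million of recombinant-junction barcodes. It is listed as log10(CPM+1).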
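Note: IS621 recombinase and bridge RNA in Escherichia coli cells.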

Row | Sequence | recombinant barcode read abundance (log10)
1 | CTAGATTCTTGGGTTCTAACCTGTTGCCT (site CCAGATTCTAG) | 0.116
2 | CTAGATTCTTGGGTTCTAACCTGTTGCCT (site CGAGATTCTAG) | 0.077
3 | CTAGATTCTTGGGTTCTAACCTGTTGCCT (site CTAGATTCTAG) | 1.49
4 | CTAGCCGCTTGGGTTCTAACCTGTTGCTT (site AGCCTATCTTG) | 0.119
5 | CTAGCCGCTTGGGTTCTAACCTGTTGCTT (site CTAGCCGCTAA) | 1.03
6 | CTAGCGGCTTGGGTTCTAACCTGTTGCAG (site CTAGCGGCTCT) | 2.05
7 | CTAGCGGCTTGGGTTCTAACCTGTTGCAG (site CTAGCTCCTCT) | 0.0734
8 | CTAGGCCCTTGGGTTCTAACCTGTTGCCT (site CTAGGCCCTAA) | 0.584
9 | CTAGGCCCTTGGGTTCTAACCTGTTGCCT (site CTAGGCCCTAC) | 2.1
10 | CTAGGCCCTTGGGTTCTAACCTGTTGCCT (site CTAGGCCCTAG) | 0.184
11 | CTAGGCCCTTGGGTTCTAACCTGTTGCCT (site CTAGGCCCTAT) | 0.506
12 | CTAGGCCCTTGGGTTCTAACCTGTTGCTT (site CTAGGCCCTAA) | 0.563
13 | CTAGGCCCTTGGGTTCTAACCTGTTGCTT (site CTAGGCCCTAC) | 0.18
14 | CTAGGCCCTTGGGTTCTAACCTGTTGCTT (site CTAGGCCCTAG) | 0.229
15 | CTAGGCCCTTGGGTTCTAACCTGTTGCTT (site CTAGGCCCTAT) | 0.939
16 | CTAGTACCTTGGGTTCTAACCTGTTGCCT (site CTAGTACCTAG) | 1.43
17 | CTAGTACCTTGGGTTCTAACCTGTTGCCT (site TTAGTAACTAG) | 0.0602
18 | CTAGTAGCTTGGGTTCTAACCTGTTGCGG (site CTAGTAGCTAC) | 0.553
19 | CTAGTAGCTTGGGTTCTAACCTGTTGCGG (site CTAGTAGCTCC) | 1.56
20 | CTAGTCCCTTGGGTTCTAACCTGTTGCCG (site CTAGTCCCTCG) | 1.79
21 | CTAGTCCCTTGGGTTCTAACCTGTTGCCG (site TTAGTCCCTCG) | 0.176
22 | CTAGTGGCTTGGGTTCTAACCTGTTGCCG (site CTAGTGGCTCG) | 1.3
23 | CTAGTGGCTTGGGTTCTAACCTGTTGCCG (site TCGTCACCTAT) | 0.0446
24 | CTATAGACTTGGGTTCTAACCTGTTGCCT (site CTATAGACTAG) | 1.11
25 | CTATAGACTTGGGTTCTAACCTGTTGCCT (site CTATCGACTAG) | 0.163
26 | CTATAGACTTGGGTTCTAACCTGTTGCCT (site CTATGGACTAG) | 0.475

Row | Sequence | recombinant barcode read abundance (log10)
27 | CTATAGACTTGGGTTCTAACCTGTTGCCT (site CTATTGACTAG) | 0.317
28 | CTATCCACTTGGGTTCTAACCTGTTGCCT (site CTATCCACTAG) | 1.63
29 | CTATCCACTTGGGTTCTAACCTGTTGCCT (site CTGTCGACTAG) | 0.873
30 | CTATGACCTTGGGTTCTAACCTGTTGCCT (site CTATGACCTAA) | 0.124
31 | CTATGACCTTGGGTTCTAACCTGTTGCCT (site CTATGACCTAC) | 0.23
32 | CTATGACCTTGGGTTCTAACCTGTTGCCT (site CTATGACCTAG) | 1.9
33 | CTATGACCTTGGGTTCTAACCTGTTGCCT (site CTATGACCTAT) | 0.104
34 | CTATGTGCTTGGGTTCTAACCTGTTGCTT (site CTATGTGCTAA) | 0.337
35 | CTATGTGCTTGGGTTCTAACCTGTTGCTT (site CTATGTGCTAC) | 0.37
36 | CTATGTGCTTGGGTTCTAACCTGTTGCTT (site CTATGTGCTAG) | 1.1
37 | CTATGTGCTTGGGTTCTAACCTGTTGCTT (site CTATGTGCTAT) | 0.746
38 | CTATTAACTTGGGTTCTAACCTGTTGCTA (site ACTCACCCTCC) | 0.00656
39 | CTATTAACTTGGGTTCTAACCTGTTGCTA (site CTATTAACTTA) | 0.328
40 | CTATTCCCTTGGGTTCTAACCTGTTGCTG (site CTATTCCCTCA) | 1.99
41 | CTATTCCCTTGGGTTCTAACCTGTTGCTG (site CTCTTCCCTAA) | 0.185
42 | CTATTCGCTTGGGTTCTAACCTGTTGCCT (site CTATTCACTAG) | 0.295
43 | CTATTCGCTTGGGTTCTAACCTGTTGCCT (site CTATTCCCTAG) | 0.0147
44 | CTATTCGCTTGGGTTCTAACCTGTTGCCT (site CTATTCGCTAG) | 1.49
45 | CTATTCGCTTGGGTTCTAACCTGTTGCCT (site CTATTCTCTAG) | 0.218
46 | CTATTGACTTGGGTTCTAACCTGTTGCCT (site CTATAGACTAG) | 0.0514
47 | CTATTGACTTGGGTTCTAACCTGTTGCCT (site CTATCGACTAG) | 0.246
48 | CTATTGACTTGGGTTCTAACCTGTTGCCT (site CTATGGACTAG) | 0.11
49 | CTATTGACTTGGGTTCTAACCTGTTGCCT (site CTATTGACTAG) | 1.42
50 | CTATTGTCTTGGGTTCTAACCTGTTGCGC (site CTATTGTCTAC) | 0.06
51 | CTATTGTCTTGGGTTCTAACCTGTTGCGC (site CTATTGTCTCC) | 0.0404
52 | CTATTGTCTTGGGTTCTAACCTGTTGCGC (site CTATTGTCTGC) | 2.77

Row | Sequence | recombinant barcode read abundance (log10)
53 | CTATTGTCTTGGGTTCTAACCTGTTGCGC (site CTATTGTCTTC) | 0.909
54 | CTATTTACTTGGGTTCTAACCTGTTGCCT (site CTAATTACTAG) | 0.0674
55 | CTATTTACTTGGGTTCTAACCTGTTGCCT (site CTACTTACTAG) | 0.302
56 | CTATTTACTTGGGTTCTAACCTGTTGCCT (site CTAGTTACTAG) | 0.19
57 | CTATTTACTTGGGTTCTAACCTGTTGCCT (site CTATTTACTAG) | 0.411
58 | CTCAATTCTTGGGTTCTAACCTGTTGCAA (site CTCAATACTTC) | 0.0332
59 | CTCAATTCTTGGGTTCTAACCTGTTGCAA (site CTCAATTCTTT) | 0.0558
60 | CTCAATTCTTGGGTTCTAACCTGTTGCAT (site CTCAATTCTAT) | 0.812
61 | CTCAATTCTTGGGTTCTAACCTGTTGCAT (site CTCCATTCTAT) | 0.0304
62 | CTCAATTCTTGGGTTCTAACCTGTTGCAT (site CTCGATTCTAT) | 0.27
63 | CTCAATTCTTGGGTTCTAACCTGTTGCAT (site CTCTATTCTAT) | 0.148
64 | CTCATAACTTGGGTTCTAACCTGTTGCCG (site CTCATAACTCG) | 0.328
65 | CTCATAACTTGGGTTCTAACCTGTTGCCG (site CTCTAAACTCG) | 0.2
66 | CTCATATCTTGGGTTCTAACCTGTTGCTT (site CTCATATCTAA) | 1.18
67 | CTCATATCTTGGGTTCTAACCTGTTGCTT (site GAATGGACTTC) | 0.0724
68 | CTCCAACCTTGGGTTCTAACCTGTTGCCT (site CGCCCACCTAG) | 0.144
69 | CTCCAACCTTGGGTTCTAACCTGTTGCCT (site CTCCAACCTAG) | 1.54
70 | CTCCAACCTTGGGTTCTAACCTGTTGCGG (site CTCCAACCTCC) | 2.14
71 | CTCCAACCTTGGGTTCTAACCTGTTGCGG (site CTCCAGCCTCC) | 0.461
72 | CTCCATACTTGGGTTCTAACCTGTTGCCT (site CTCCATACTAG) | 0.814
73 | CTCCATACTTGGGTTCTAACCTGTTGCCT (site CTCCATCCTAG) | 0.0983
74 | CTCCATACTTGGGTTCTAACCTGTTGCCT (site CTCCATGCTAG) | 0.23
75 | CTCCATACTTGGGTTCTAACCTGTTGCCT (site CTCCATTCTAG) | 0.0874
76 | CTCCGAACTTGGGTTCTAACCTGTTGCAG (site CTCCGAACTCT) | 1.12
77 | CTCCGAACTTGGGTTCTAACCTGTTGCAG (site TCATATCCTAG) | 0.174
